Data as given in patent US4476128A, “2-Substituted thiazolyl-piperazine compounds, process for preparation thereof and utilizations thereof _” (Mitsuitoatsu Chemicals, Inc., priority 1980, dated 1984).

Columns and labels:
[1] = tested on: adjuvant arthritis caused by Mycobacterium tuberculosis adjuvant; test: Adjuvant Arthritis Test; format: in vivo, SD male rats; settings: 5 mg/Kg subcutaneous, 9 times, left hind leg, * P<0.05, ** P<0.01
Procedure: The adjuvant arthritis in rats caused by injection of a Mycobacterium tuberculosis adjuvant is often utilized for a model test of chronic rheumatoid arthritis in men.
The mechanism of manifestation of this disease has not completely been elucidated, but it is known that the cellular immunity takes an important role. The immunopotentiative action of the compound of the present invention was tested according to this known adjuvant arthritis test.
A group of ten 9-weeks-old SD male rats were used for the test. In 0.1 ml of fluid paraffin, 0.4 mg of dry dead cells of Mycobacterium tuberculosis were suspended, and the suspension was injected under the heel skin of the right hind leg. The compound of the present invention was subcutaneously administered 9 times as a whole before and after injection of the adjuvant. The test compound was dissolved in a physiological saline and administered at a dose of 5 mg per Kg of the body weight. The swelling volume of the left hind leg as measured during the period of from the day of injection to the day of completion of the test, and the swelling ratio was calculated. For comparison, the test was similarly conducted by using Levamisole hydrochloride. F.t tests were carried out on the obtained test results. The group in which the test result was significant at a level of P<0.05 was marked by *, and the group in which the test result was significant at a level of P<0.01 was marked by **.

Sarcoma 180 [2] = test: Test of Antitumor Effect to Sarcoma 180 by Oral Administration; format: in vivo, ICR female mice; settings: for D: average diameter (mm) of tumor, 2 weeks / D: average diameter (mm) of tumor, 4 weeks / D: average diameter (mm) of tumor, 6 weeks / D: average diameter (mm) of tumor, 8 weeks / D: average diameter (mm) of tumor, 10 weeks: 100 mg/Kg oral once a day, 10 days; for N: number of living mice, 0 weeks / N: number of living mice, 2 weeks / N: number of living mice, 4 weeks / N: number of living mice, 6 weeks / N: number of living mice, 8 weeks / N: number of living mice, 10 weeks: 100 mg/Kg oral, group of 6
Procedure: To the control group, a physiological saline was similarly administered. The dose of the compound was 100 mg per Kg of the body weight. The diameter D (mm) of the tumor was measured, and the average value and the number N of the living mice were determined to obtain results shown in Table 4.

Sarcoma 180 [3] = test: Test of Antitumor Effect to Sarcoma 180 by Subcutaneous Administration; format: in vivo, ICR female mice; settings: 20 mg/Kg subcutaneous; for N: number of living mice, 0 weeks / N: number of living mice, 2 weeks / N: number of living mice, 4 weeks / N: number of living mice, 6 weeks / N: number of living mice, 8 weeks / N: number of living mice, 10 weeks: group of 6
Procedure: To the control group, a physiological saline was similarly administered. […] The diameter D (mm) of the tumor was measured, and the average value and the number N of the living mice were determined to obtain results shown in Table 4.

CCN(CC)C(=O)N1CCN(c2nc(-c3ccccc3)cs2)CC1 [drawing 10]
Swelling Ratio (average value ± standard variation, %), 15 days [1]: 43.5 ± 13.9%
Swelling Ratio (average value ± standard variation, %), 18 days [1]: 41.5 ± 12.6%
Swelling Ratio (average value ± standard variation, %), 21 days [1]: 52.9 ± 11.2%

CCN(CC)C(=O)N1CCN(c2nccs2)CC1 [drawing 11]
Swelling Ratio (average value ± standard variation, %), 15 days [1]: 60.9 ± 8.0%
Swelling Ratio (average value ± standard variation, %), 18 days [1]: 59.8 ± 7.8%
Swelling Ratio (average value ± standard variation, %), 21 days [1]: 50.5 ± 10.0%

CCN(CC)C(=O)N1CCN(c2nc(-c3ccccc3)cs2)CC1 [drawing 14]
D: average diameter (mm) of tumor, 2 weeks (Sarcoma 180 [2]): 5.6 mm
D: average diameter (mm) of tumor, 4 weeks (Sarcoma 180 [2]): 3.5 mm
D: average diameter (mm) of tumor, 6 weeks (Sarcoma 180 [2]): 4.6 mm
D: average diameter (mm) of tumor, 8 weeks (Sarcoma 180 [2]): 0 mm
D: average diameter (mm) of tumor, 10 weeks (Sarcoma 180 [2]): 0 mm
N: number of living mice, 0 weeks (Sarcoma 180 [2]): 6
N: number of living mice, 2 weeks (Sarcoma 180 [2]): 6
N: number of living mice, 4 weeks (Sarcoma 180 [2]): 6
N: number of living mice, 6 weeks (Sarcoma 180 [2]): 6
N: number of living mice, 8 weeks (Sarcoma 180 [2]): 6
N: number of living mice, 10 weeks (Sarcoma 180 [2]): 6

CCN(CC)C(=O)N1CCN(c2nccs2)CC1 [drawing 15]
D: average diameter (mm) of tumor, 2 weeks (Sarcoma 180 [2]): 8.6 mm
D: average diameter (mm) of tumor, 4 weeks (Sarcoma 180 [2]): 7.5 mm
D: average diameter (mm) of tumor, 6 weeks (Sarcoma 180 [2]): 6.7 mm
D: average diameter (mm) of tumor, 8 weeks (Sarcoma 180 [2]): 7.7 mm
D: average diameter (mm) of tumor, 10 weeks (Sarcoma 180 [2]): 0 mm
N: number of living mice, 0 weeks (Sarcoma 180 [2]): 6
N: number of living mice, 2 weeks (Sarcoma 180 [2]): 6
N: number of living mice, 4 weeks (Sarcoma 180 [2]): 6
N: number of living mice, 6 weeks (Sarcoma 180 [2]): 6
N: number of living mice, 8 weeks (Sarcoma 180 [2]): 6
N: number of living mice, 10 weeks (Sarcoma 180 [2]): 6

CCN(CC)C(=O)N1CCN(c2nc(-c3ccccc3)cs2)CC1 [drawing 16]
N: number of living mice, 0 weeks (Sarcoma 180 [3]): 6
D: average diameter (mm) of tumor, 2 weeks (Sarcoma 180 [3]): 2.6 mm
N: number of living mice, 2 weeks (Sarcoma 180 [3]): 6
D: average diameter (mm) of tumor, 4 weeks (Sarcoma 180 [3]): 3.5 mm
N: number of living mice, 4 weeks (Sarcoma 180 [3]): 6
D: average diameter (mm) of tumor, 6 weeks (Sarcoma 180 [3]): 6.5 mm
N: number of living mice, 6 weeks (Sarcoma 180 [3]): 6
D: average diameter (mm) of tumor, 8 weeks (Sarcoma 180 [3]): 0.6 mm
N: number of living mice, 8 weeks (Sarcoma 180 [3]): 6
D: average diameter (mm) of tumor, 10 weeks (Sarcoma 180 [3]): 0 mm
N: number of living mice, 10 weeks (Sarcoma 180 [3]): 6

CCN(CC)C(=O)N1CCN(c2nccs2)CC1 [drawing 17]
N: number of living mice, 0 weeks (Sarcoma 180 [3]): 6
D: average diameter (mm) of tumor, 2 weeks (Sarcoma 180 [3]): 4.9 mm
N: number of living mice, 2 weeks (Sarcoma 180 [3]): 6
D: average diameter (mm) of tumor, 4 weeks (Sarcoma 180 [3]): 6.7 mm
N: number of living mice, 4 weeks (Sarcoma 180 [3]): 6
D: average diameter (mm) of tumor, 6 weeks (Sarcoma 180 [3]): 9.6 mm
N: number of living mice, 6 weeks (Sarcoma 180 [3]): 6
D: average diameter (mm) of tumor, 8 weeks (Sarcoma 180 [3]): 5.6 mm
N: number of living mice, 8 weeks (Sarcoma 180 [3]): 6
D: average diameter (mm) of tumor, 10 weeks (Sarcoma 180 [3]): 0 mm
N: number of living mice, 10 weeks (Sarcoma 180 [3]): 6
